Results as given in patent publication US20240109873A1, “ANTAGONISTS OF THE MUSCARINIC ACETYLCHOLINE RECEPTOR M4” (Vanderbilt University, priority 2020, published 2024).

Molecular target: T1, human mAChR M4 (Homo sapiens, UniProt P08173)
T1 construct: expressed in transfected cells; host or cells: CHO-K1 (ATCC), co-transfected with chimeric G protein Gqi5
T1 sequence (P08173 1-479): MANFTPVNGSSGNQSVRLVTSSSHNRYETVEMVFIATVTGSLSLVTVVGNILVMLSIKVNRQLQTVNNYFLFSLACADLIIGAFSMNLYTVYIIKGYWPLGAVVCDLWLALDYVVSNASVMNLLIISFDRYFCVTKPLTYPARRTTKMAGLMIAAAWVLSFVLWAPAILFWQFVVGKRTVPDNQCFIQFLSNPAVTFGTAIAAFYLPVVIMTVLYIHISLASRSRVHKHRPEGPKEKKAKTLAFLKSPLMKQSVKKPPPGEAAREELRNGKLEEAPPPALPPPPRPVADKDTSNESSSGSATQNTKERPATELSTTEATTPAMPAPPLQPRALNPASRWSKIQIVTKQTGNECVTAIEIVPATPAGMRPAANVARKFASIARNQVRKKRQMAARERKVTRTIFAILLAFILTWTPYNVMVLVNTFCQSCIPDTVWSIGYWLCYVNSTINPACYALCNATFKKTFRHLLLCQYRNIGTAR
Test: mAChR M4 cell-based functional assay (calcium flux, antagonism of EC80 acetylcholine response, M4/Gqi5/CHO-K1 cells)
Settings: for remaining activity at 30 µM: CHO-K1, % ACh maximum at 30 μM, read-out: Human M4 Emin; for IC50: decrease of the response elicited by an EC80 concentration of acetylcholine, CHO-K1 cells, Gqi5; for Human M4 Emin: % ACh maximum at 30 μM
Method: Human or rat M4 cDNA, along with the chimeric G protein Gqi5, were transfected into Chinese hamster ovary (CHO-K1) cells purchased from the American Type Culture Collection using Lipofectamine2000. M4/Gqi5/CHO cells were grown in Ham's F-12 medium containing 10% heat-inactivated fetal bovine serum (FBS), 20 mM HEPES, 500 μg/mL G418 sulfate, and 200 μg/mL Hygromycin B.
For high throughput measurement of agonist-evoked increases in intracellular calcium, CHO-K1 cells stably expressing muscarinic receptors were plated in growth medium lacking G418 and hygromycin at 15,000 cells/20 μL/well in Greiner 384-well black-walled, tissue culture (TC)-treated, clear-bottom plates (VWR). Cells were incubated overnight at 37° C. and 5% CO2. The next day, cells were washed using an ELX 405 (BioTek) with assay buffer; the final volume was then aspirated to 20 μL. Next, 20 μL of a 2.3 μM stock of Fluo-4/acetoxymethyl ester (Invitrogen, Carlsbad, CA), prepared as a 2.3 mM stock in DMSO and mixed in a 1:1 ratio with 10% (w/v) Pluronic F-127 and diluted in assay buffer, was added to the wells and the cell plates were incubated for 50 min at 37° C. and 5% CO2. Dye was removed by washing with the ELX 405 and the final volume was aspirated to 20 μL. Compound master plates were formatted in a 10-point concentration-response curve (CRC) format (1:3 dilutions) in 100% DMSO with a starting concentration of 10 or 1 mM using a BRAVO liquid handler (Agilent). Test compound CRCs were then transferred to daughter plates (240 nL) using the Echo acoustic plate reformatter (Labcyte, Sunnyvale, CA) and then diluted into assay buffer (40 μL) to a 2× stock using a Thermo Fisher Combi (Thermo Fisher Scientific, Waltham, MA).
Calcium flux was measured using the Functional Drug Screening System (FDSS) 6000 or 7000 (Hamamatsu Corporation, Tokyo, Japan) as an increase in the fluorescent static ratio. Compounds were applied to cells (20 μL, 2×) using the automated system of the FDSS at 2 seconds into the protocol and the data were collected at 1 Hz. At 143 s, 10 μL of an EC20 concentration of the muscarinic receptor agonist acetylcholine was added (5×), followed by the addition of 12 μL of an EC80 concentration of acetylcholine at the 268 s time point (5×). Agonist activity was analyzed as a concentration-dependent increase in calcium mobilization upon compound addition. Positive allosteric modulator activity was analyzed as a concentration-dependent increase in the EC20 acetylcholine response. Antagonist activity was analyzed as a concentration-dependent decrease in the EC80 acetylcholine response; for the purposes of the tables herein, an IC50 (inhibitory concentration 50) was calculated as a concentration-dependent decrease of the response elicited by an EC80 concentration of acetylcholine. Concentration-response curves were generated using a four-parameter logistical equation in XLFit curve fitting software (IDBS, Bridgewater, NJ) for Excel (Microsoft, Redmond, WA) or Prism (GraphPad Software, Inc., San Diego, CA) or the Dotmatics software platform (Dotmatics, Bishop's Stortford, UK). […]
Compounds were synthesized as described above. Activity (IC50 and Emin) was determined in the mAChR M4 cell-based functional assay as described above and the data are shown in Table 2.

Row | remaining activity at 30 µM | IC50 | Human M4 Emin | Structure (SMILES)
1 | 3% | 0.41 nM | – | [2H]C([2H])(C1CCOCC1)N1C[C@H]2C[C@H](Nc3ccc(-c4cnccc4C(F)(F)F)nn3)C[C@H]2C1 [Compound 2, (3aR,5s,6aS)-2-((tetrahydro-2H-pyran-4-yl)methyl-d2)-N-(6-(4-(trifluoromethyl)pyridin-3-yl)pyridazin-3-yl)octahydrocyclopenta[c]pyrrol-5-amine]
2 | 23% | 0.8 nM | – | [2H]C([2H])(C1CCOCC1)N1C[C@H]2C[C@H](Nc3ccc(-c4cccnc4C(F)(F)F)nn3)C[C@H]2C1 [Compound 39, (3aR,5s,6aS)-2-((tetrahydro-2H-pyran-4-yl)methyl-d2)-N-(6-(2-(trifluoromethyl)pyridin-3-yl)pyridazin-3-yl)octahydrocyclopenta[c]pyrrol-5-amine]
3 | 26% | 2.8 nM | – | [2H]C([2H])(C1CCOCC1)N1C[C@H]2C[C@H](Nc3ccc(-c4cnc(C(F)(F)F)cc4C(F)(F)F)nn3)C[C@H]2C1 [Compound 17, (3aR,5s,6aS)-N-(6-(4,6-bis(trifluoromethyl)pyridin-3-yl)pyridazin-3-yl)-2-((tetrahydro-2H-pyran-4-yl)methyl-d2)octahydrocyclopenta[c]pyrrol-5-amine]
4 | 2% | 0.58 nM | – | [2H]C([2H])(C1CCCOCC1)N1C[C@H]2C[C@H](Nc3ccc(-c4cccnc4C(F)(F)F)nn3)C[C@H]2C1 (stereo partly drawn) [Compound 52, (3aR,5s,6aS)-2-(oxepan-4-ylmethyl-d2)-N-(6-(2-(trifluoromethyl)pyridin-3-yl)pyridazin-3-yl)octahydrocyclopenta[c]pyrrol-5-amine]
5 | – | 9.4 nM | 3% | [2H]C([2H])(C1CCOC(C)(C)C1)N1C[C@H]2C[C@H](Nc3ccc(-c4cnccc4C(F)(F)F)nn3)C[C@H]2C1 (single isomer, unassigned) [Compound 58]
6 | 4% | 44 nM | – | [2H]C([2H])(N1C[C@H]2C[C@H](Nc3ccc(-c4cnccc4C(F)(F)F)nn3)C[C@H]2C1)[C@]12CCC[C@H]1OCC2 (racemic) [Compound 29, (3aR,5s,6aS)-2-(((3aR,6aR)-hexahydro-3aH-cyclopenta[b]furan-3a-yl)methyl-d2)-N-(6-(4-(trifluoromethyl)pyridin-3-yl)pyridazin-3-yl)octahydrocyclopenta[c]pyrrol-5-amine and (3aR,5s,6aS)-2-(((3aS,6aS)-hexahydro-3aH-cyclopenta[b]furan-3a-yl)methyl-d2)-N-(6-(4-(trifluoromethyl)pyridin-3-yl)pyridazin-3-yl)octahydrocyclopenta[c]pyrrol-5-amine]
7 | 4% | 1.2 nM | – | [2H]C([2H])(C1CCOCC1)N1C[C@H]2C[C@H](Nc3ccc(-c4cnccc4C(F)F)nn3)C[C@H]2C1 [Compound 13, (3aR,5s,6aS)-N-(6-(4-(difluoromethyl)pyridin-3-yl)pyridazin-3-yl)-2-((tetrahydro-2H-pyran-4-yl)methyl-d2)octahydrocyclopenta[c]pyrrol-5-amine]
8 | 7% | 2.4 nM | – | [2H]C([2H])(C1CCOCC1)N1C[C@H]2C[C@H](Nc3nnc(-c4cnccc4C(F)(F)F)cc3OC)C[C@H]2C1 [Compound 15, (3aR,5s,6aS)-N-(4-methoxy-6-(4-(trifluoromethyl)pyridin-3-yl)pyridazin-3-yl)-2-((tetrahydro-2H-pyran-4-yl)methyl-d2)octahydrocyclopenta[c]pyrrol-5-amine]
9 | 2% | 6.4 nM | – | [2H]C([2H])(C1CCOCC1(C)C)N1C[C@H]2C[C@H](Nc3nnc(-c4cnccc4C(F)(F)F)cc3C)C[C@H]2C1 (stereo partly drawn) [Compound 20, (3aR,5s,6aS)-2-((3,3-dimethyltetrahydro-2H-pyran-4-yl)methyl-d2)-N-(4-methyl-6-(4-(trifluoromethyl)pyridin-3-yl)pyridazin-3-yl)octahydrocyclopenta[c]pyrrol-5-amine]
10 | – | 1 nM | 3% | [2H]C([2H])(C1CCOC(C)(C)C1)N1C[C@H]2C[C@H](Nc3ccc(-c4cnccc4C(F)(F)F)nn3)C[C@H]2C1 (single isomer, unassigned) [Compound 59]
11 | 4% | 3.1 nM | – | [2H]C([2H])(C1CCOCC1)N1C[C@H]2C[C@H](Nc3nnc(-c4cnccc4C(F)(F)F)cc3C3CC3)C[C@H]2C1 [Compound 14, (3aR,5s,6aS)-N-(4-cyclopropyl-6-(4-(trifluoromethyl)pyridin-3-yl)pyridazin-3-yl)-2-((tetrahydro-2H-pyran-4-yl)methyl-d2)octahydrocyclopenta[c]pyrrol-5-amine]
12 | 2% | 4.6 nM | – | [2H]C([2H])(C1CCOCC1(C)C)N1C[C@H]2C[C@H](Nc3ccc(-c4cnccc4C(F)(F)F)nn3)C[C@H]2C1 (stereo partly drawn) [Compound 3, (3aR,5s,6aS)-2-((3,3-dimethyltetrahydro-2H-pyran-4-yl)methyl-d2)-N-(6-(4-(trifluoromethyl)pyridin-3-yl)pyridazin-3-yl)octahydrocyclopenta[c]pyrrol-5-amine]
13 | 2% | 0.87 nM | – | [2H]C([2H])([C@@H]1CCCCO1)N1C[C@H]2C[C@H](Nc3ccc(-c4cccnc4C(F)(F)F)nn3)C[C@H]2C1 [Compound 48, (3aR,5s,6aS)-2-(((S)-tetrahydro-2H-pyran-2-yl)methyl-d2)-N-(6-(2-(trifluoromethyl)pyridin-3-yl)pyridazin-3-yl)octahydrocyclopenta[c]pyrrol-5-amine]
14 | 2% | 14.7 nM | – | [2H]C([2H])(C1CC(C)(C)OC(C)(C)C1)N1C[C@H]2C[C@H](Nc3ccc(-c4cccnc4C(F)(F)F)nn3)C[C@H]2C1 [Compound 45, (3aR,5s,6aS)-2-((2,2,6,6-tetramethyltetrahydro-2H-pyran-4-yl)methyl-d2)-N-(6-(2-(trifluoromethyl)pyridin-3-yl)pyridazin-3-yl)octahydrocyclopenta[c]pyrrol-5-amine]
15 | 4% | 21 nM | – | [2H]C([2H])(N1C[C@H]2C[C@H](Nc3nnc(-c4cnccc4C(F)(F)F)cc3C)C[C@H]2C1)C(F)(F)C1CCOCC1 [Compound 37, (3aR,5s,6aS)-2-(2,2-difluoro-2-(tetrahydro-2H-pyran-4-yl)ethyl-1,1-d2)-N-(4-methyl-6-(4-(trifluoromethyl)pyridin-3-yl)pyridazin-3-yl)octahydrocyclopenta[c]pyrrol-5-amine]
16 | 14% | 24 nM | – | [2H]C([2H])(C1CC(C)(C)OC(C)(C)C1)N1C[C@H]2C[C@H](Nc3ccc(-c4cnccc4C(F)(F)F)nn3)C[C@H]2C1 [Compound 32, (3aR,5s,6aS)-2-((2,2,6,6-tetramethyltetrahydro-2H-pyran-4-yl)methyl-d2)-N-(6-(4-(trifluoromethyl)pyridin-3-yl)pyridazin-3-yl)octahydrocyclopenta[c]pyrrol-5-amine]
